Measurements from publication PMC9738062, “Selectively Halogenated Flavonolignans—Preparation and Antibacterial Activity” (International Journal of Molecular Sciences, 2022).

What was measured:
[1] = Folin-Ciocalteu reagent reduction; details: gallic acid equivalents
Experimental: (§1) To further elucidate how halogenation affects other properties of the flavonoids studied, their 2,2′-azino-bis-(3-ethylbenzothiazoline-6-sulfonic acid) cation (ABTS) and 1,1-diphenyl-2-picrylhydrazyl (DPPH) radical scavenging, the Folin–Ciocalteu reagent (FCR) reducing, the ferric-reducing antioxidant power (FRAP), and the anti-lipoperoxidation activities were evaluated by in vitro methods (Supplementary Information Tables S1 and S2).
(§2) The antiradical activity was evaluated by the ability to scavenge ABTS and DPPH radicals. Reducing capacity was assessed by the ability to reduce the Folin–Ciocalteu reagent (FCR) and ferric ions (FRAP). The ability to inhibit lipid peroxidation of pooled male rat microsomal liver membranes induced by tert-butyl hydroperoxide was also evaluated and the results were expressed as IC50 values.

[2] = ABTS cation radical scavenging; details: vitamin C equivalent antioxidant capacity
Experimental: as §1, §2

DPPH radical scavenging = details: 1,1-diphenyl-2-picrylhydrazyl radical scavenging
Experimental: as §1, §2

[3] = Ferric reducing antioxidant power (FRAP); details: Fe2+ equivalents
Experimental: as §1, §2

[4] = system: Vibrio campbellii BAA 1119 (AI-2); test: Viability of the quorum-sensing reporter culture (resazurin assay), AI-2 strain; format: cell-based; details: BAA1119, V. campbellii BAA 1119, resazurin assay, read-out: IC50 (concentration that halved the viability)
Source text: (§3) Commercially available strains of Vibrio campbellii were used to evaluate the ability of flavonoids and their derivatives to inhibit bacterial quorum sensing. V. campbellii uses two types of autoinducing molecules for its communication—N-acyl-homoserine lactones (Autoinducer I, AI-1, strain BAA 1118) and furanosyl borate diester (Autoinducer II, AI-2, strain BAA 1119). AI-1-based communication is mainly used by Gram-negative bacteria, while AI-2-based communication is found in both Gram-negative and Gram-positive bacteria. The mutant strains of V. campbellii BA1118 and BA1119 respond only to AI-1 or AI-2, respectively, and the response to the respective AI concentration is measured as luminescence. The higher the AI concentration, the higher the luminescence signal. The ability to inhibit the communication was expressed as the selectivity index (SI), calculated as the ratio between the concentration that halved the viability (IC50) and the concentration that halved the communication (EC50) of the respective V. campbellii strains. […] The antimicrobial activity of quorum-sensing inhibitors is undesirable because it creates a selection pressure and can lead to the development of resistance.
(§4) The inhibition of bacterial extracellular communication was measured using Vibrio campbellii strains BAA-1118 and BAA-1119. The experiment was performed according to the methods of Szemerédi et al.. Briefly, 5 × 10^5 CFU/mL (colony-forming units per milliliter) were seeded in an Autoinducer Bioassay medium (NaCl 17.5 g/L, MgSO4 12.3 g/L, Casamino acids 2 g/L, 10 mL of 1 M potassium phosphate pH 7.0, 10 mL of 0.1 M L-arginine, and 10 mL of glycerol in 970 mL of deionized water) in a 96-well plate. Immediately, the tested compounds were added at the final concentration of 0.2–200 µM and luminescence was recorded for 16 h by a SpectraMax i3x microplate reader set at 30 °C, an integration time of 10,000 ms, and shaking for 60 s before measurement. […] The selectivity index was calculated as the […]. The EC50 and IC50 were calculated using GraphPad Prism software version 5.00 for Windows with a nonlinear regression curve fit.

[5] = system: Vibrio campbellii BAA 1119 (AI-2); test: microbe, parasite or virus in culture; format: cell-based; details: for EC50: Vibrio campbellii, BAA1119, 16 h, read-out: EC50 (concentration that halved the communication); for SI (selectivity index): ratio IC50 (viability) / EC50 (communication), BAA 1119
Source text: as §3, §4

[6] = system: Vibrio campbellii BAA 1118 (AI-1); test: microbe, parasite or virus in culture; format: cell-based; details: for EC50: Vibrio campbellii, BAA1118, 16 h, read-out: EC50 (concentration that halved the communication); for SI (selectivity index): ratio IC50 (viability) / EC50 (communication), BAA 1118
Source text: as §3, §4

[7] = system: Vibrio campbellii BAA 1118 (AI-1); test: Viability of the quorum-sensing reporter culture (resazurin assay), AI-1 strain; format: cell-based; details: BAA1118, V. campbellii BAA 1118, resazurin assay, read-out: IC50 (concentration that halved the viability)
Source text: as §3, §4

[8] = system: lipopolysaccharide-stimulated macrophages (RAW 264.7); test: Inhibition of nitric oxide production (Griess reagent); format: cell-based, murine; details: Mus musculus, RAW264.7; LPS 100 ng/mL, 24 h; highest tested concentration 100 µM; read-out: NO Production IC50
Experimental: The anti-inflammatory activity of the tested flavonolignans was determined as the ability to reduce nitric oxide production by murine macrophages (RAW 264.7) stimulated by bacterial lipopolysaccharides, as previously described. […] For the experiment, 1 × 10^6 cells/mL was seeded into the 96-well plate (100 µL/well). […] After 24 h, the medium was mixed with Griess reagent (0.04 g/mL), prepared freshly in deionized water at the ratio of 1:1. The absorbance was measured after 15 min at 540 nm by the SpectraMax i3x microplate reader. Cell viability was determined by resazurin assay.

[9] = system: human dermal fibroblasts (HDF); test: Cytotoxicity (resazurin assay, 72 h); format: cell-based; details: Fibroblast
Experimental: (§5) The cytotoxicity of flavonoids and their halogenated derivatives was determined as their ability to decrease the viability of human dermal fibroblasts (HDF) and doxorubicin-resistant human ovarian carcinomas (HOC/DOX). Both cell lines were cultivated in Dulbecco’s Modified Eagle’s Medium supplemented with fetal bovine serum (FBS, 10% v/v) and 1 × antibiotic antimycotic solution and incubated at 37 °C in the atmosphere of 5% CO2. The experiment was performed according to a previously published method. Briefly, 1 × 10^5 cells/mL were seeded into a 96-well plate (100 µL/well). After 24 h, flavonoids and their derivatives were administered at the concentration range of 31.25–500 µM. After 72 h, the viability was determined by resazurin assay (0.03 mg/mL of resazurin in PBS), where the fluorescence was measured after 2 h of incubation by the SpectraMax i3x microplate reader at a wavelength of 560/590 nm (excitation/emission). The concentration inhibiting half of the population (IC50) was determined using nonlinear regression in GraphPad Prism software. The selectivity index was calculated as the ratio between the IC50 for HDF (control, non-cancerous cells) and the IC50 for HOC/DOX (cancer cells).

[10] = system: doxorubicin-resistant human ovarian carcinoma (HOC/DOX); test: Cytotoxicity (resazurin assay, 72 h); format: cell-based; details: for IC50: Homo sapiens, 72 h, resazurin assay; for SI (selectivity index): ratio IC50 for HDF / IC50 for HOC/DOX
Experimental: as §5

[11] = system: multidrug-resistant P. aeruginosa; test: Sensitization of antibiotic-resistant bacteria (compound plus breakpoint antibiotic concentration); format: cell-based, Pseudomonas aeruginosa; details: flavonoid 40 µM, 24 h; for Effect on viability in combination with colistin: colistin 2 mg/L; for Effect on viability in combination with imipenem: imipenem 4 mg/L; for Effect on viability in combination with imipenem: key: -: no effect (100% viability) was observed up to the highest flavonolignan concentration tested (>40 µM); reversion of resistance: the compound reversed the resistant phenotype to a sensitive one
Experimental: (§6) Clinically relevant antibiotics were selected for sensitization testing according to the European Committee on Antimicrobial Susceptibility Testing (EUCAST). Neither colistin and imipenem at breakpoint concentrations (according to EUCAST, […] and […]) affected the growth of the multidrug-resistant clinical strain of P. aeruginosa. Similarly, neither chloramphenicol and gentamicin at breakpoint concentrations ([…], respectively) affected the multidrug-resistant clinical strain of S. aureus. Flavonoids and their derivatives (1–40 µM) were used in combination therapy, along with the breakpoint concentration of antibiotics. After co-incubation, the minimum inhibitory concentration of flavonoids inhibiting the visible growth of bacteria was determined (Table 2).
(§7) Clinical isolates of P. aeruginosa and S. aureus were obtained from the General University Hospital in Prague (Prague, Czech Republic). P. aeruginosa was resistant to ciprofloxacin, oxacillin, ticarcillin, colistin, gentamicin, and imipenem. S. aureus was resistant to ciprofloxacin, gentamicin, erythromycin, chloramphenicol, clindamycin, oxacillin, cefotaxime, and vancomycin. Bacteria were cultivated in Mueller–Hinton broth (MH broth, Merck). The susceptibility of the bacteria was evaluated by the minimum inhibitory concentrations (MIC). The MIC of derivatives in the presence of the antibiotic cut-off concentration was determined according to ISO 20776-1: 2020. The antibiotic cut-off concentration was chosen according to the European Committee on Antimicrobial Susceptibility Testing (EUCAST, Clinical breakpoints—bacteria (ver. 11.0), 1 January 2021). The 40 µM concentration of the derivatives was chosen as the highest concentration for the tests. Cell viability was determined by measuring absorbance (A590 nm) after 24 h incubation at 37 °C, 150 rpm.

[12] = system: multidrug-resistant S. aureus; test: as above; format: cell-based, Staphylococcus aureus; details: flavonoid 40 µM, 24 h; for Effect on viability in combination with chloramphenicol: chloramphenicol 8 mg/L
Experimental: as §6, §7

[13] = system: pooled male rat microsomal liver membranes; test: Inhibition of lipid peroxidation induced by tert-butyl hydroperoxide; format: biochemical; details: male rat microsomes, read-out: ILP IC50
Experimental: as §2

IC50 (DPPH radical scavenging)	Compound	FCR [GAE] [1]	ABTS [CEAC] [2]	FRAP [Fe2+eq] [3]	EC50 [5]	SI (selectivity index) [5]	EC50 [6]	SI (selectivity index) [6]	IC50 [7]	IC50 [8]	IC50 [9]	IC50 [10]	SI (selectivity index) [10]	Effect on viability in combination with colistin [11]	Effect on viability in combination with imipenem [11]	Effect on viability in combination with chloramphenicol [12]	also measured
> 500 µM	COc1cc([C@H]2Oc3cc([C@H]4Oc5c(I)c(O)c(I)c(O)c5C(=O)[C@@H]4O)ccc3O[C@@H]2CO)ccc1O [compound 25, 6,8-diiodosilybin A]	0.95 ± 0.01 GAE	0.41 ± 0.01 CEAC	0.053 ± 0.003 Fe2+eq													
	O=c1[nH]cc(F)c(=O)[nH]1 [5-Fluorouracil, reference compound]				0.00044 µM	7.8 ± 0.5	0.00039 µM	1.73 ± 0.05	0.00068 µM								IC50 [4]: 0.00341 µM
	COc1ccc2c(c1)c(CC(=O)O)c(C)n2C(=O)c1ccc(Cl)cc1 [Indomethacin, reference compound]									51.3 ± 0.6 µM	222 µM	17.1 ± 0.6 µM	12.94				
	CC1(C)[C@H](C(=O)O)N2C(=O)C[C@H]2S1(=O)=O [Sulbactam, reference compound]													-	-	reversion of resistance	Effect on viability in combination with gentamicin ([12]; gentamicin 1 mg/L): -
97.1 µM	COc1cc([C@@H]2Oc3cc([C@H]4Oc5c(I)c(O)cc(O)c5C(=O)[C@@H]4O)ccc3O[C@H]2CO)ccc1O [compound 24, 8-iodosilybin B]	1.01 ± 0.02 GAE	0.47 ± 0.04 CEAC	0.079 ± 0.002 Fe2+eq													
3.5 µM	Cc1c(C)c2c(c(C)c1O)CCC(C)(C(=O)O)O2 (stereo not drawn) [Trolox, reference compound]																IC50 [13]: 32.7 ± 2.4 µM
249 µM	COc1cc([C@@H]2Oc3cc([C@H]4Oc5c(I)c(O)c(I)c(O)c5C(=O)[C@@H]4O)ccc3O[C@H]2CO)ccc1O [compound 26, 6,8-diiodosilybin B]	0.84 ± 0.04 GAE	0.48 ± 0.01 CEAC	0.048 ± 0.001 Fe2+eq													
	[Fe+2] [Fe2+, reference compound]			1.01 Fe2+eq													
	O=C1O[C@H]([C@@H](O)CO)C(O)=C1O [vitamin C, reference compound]		1.01 CEAC														
	O=C(O)c1cc(O)c(O)c(O)c1 [gallic acid, reference compound]	1.00 GAE															

Compound	IC50 (DPPH radical scavenging)	FCR [GAE] [1]	ABTS [CEAC] [2]	FRAP [Fe2+eq] [3]	EC50 [5]	SI (selectivity index) [5]	EC50 [6]	SI (selectivity index) [6]	IC50 [7]	IC50 [8]	IC50 [9]	IC50 [10]	SI (selectivity index) [10]	Effect on viability in combination with colistin [11]	Effect on viability in combination with imipenem [11]	Effect on viability in combination with chloramphenicol [12]	also measured
COc1cc([C@H]2Oc3cc([C@H]4Oc5c(Br)c(O)cc(O)c5C(=O)[C@@H]4O)ccc3O[C@@H]2CO)ccc1O [compound 19, 8-bromosilybin A]	> 500 µM	1.01 ± 0.02 GAE	0.68 ± 0.03 CEAC	0.057 ± 0.002 Fe2+eq	4.6 ± 0.3 µM	≥43.1 ± 2.6	33.9 ± 1.8 µM	3.4 ± 0.3	115 ± 5.4 µM	36.4 ± 1.7 µM	77.4 ± 1.1 µM	202 µM	0.38	-	-	-	IC50 [4]: > 200 µM
COc1cc([C@@H]2Oc3cc([C@H]4Oc5cc(O)c(Cl)c(O)c5C(=O)[C@@H]4O)ccc3O[C@H]2CO)ccc1O [compound 28, 6-Chlorosilybin B]	> 500 µM	1.25 ± 0.01 GAE	0.71 ± 0.02 CEAC	0.050 ± 0.002 Fe2+eq	3.2 ± 0.2 µM	≥62.6 ± 3.6	114 ± 5 µM	1.1 ± 0.1	130 ± 5.9 µM	52.4 ± 4.5 µM	147 µM	272 µM	0.54	-	-	-	IC50 [4]: > 200 µM
COc1cc([C@@H]2Oc3cc([C@H]4Oc5c(Br)c(O)cc(O)c5C(=O)[C@@H]4O)ccc3O[C@H]2CO)ccc1O [compound 20, 8-bromosilybin B]	> 500 µM	1.10 ± 0.02 GAE	0.47 ± 0.01 CEAC	0.056 ± 0.002 Fe2+eq	4.7 ± 0.2 µM	≥42.9 ± 2.1	44.2 ± 0.7 µM	2.9 ± 0.1	127 ± 4 µM	38 ± 2.2 µM	97.9 ± 4.4 µM	227 µM	0.43	-	-	-	
